Experimental data published in ChEMBL document CHEMBL4819073, “Synthesis and biological evaluation of phenothiazine derivative-containing hydroxamic acids as potent class II histone deacetylase inhibitors” (Eur J Med Chem, 2021).
The source made the active and inactive calls. The calls are words filed in the database; no cut-off is given here.

Tests used:
[1] = target: T1, Protein deacetylase HDAC6 (Mus musculus) (UniProt Q9Z2V5); experiment: Inhibition of HDAC6 in mouse Neuro2a cells assessed as increase in acetylated alpha-tubulin levels incubated for 24 hrs by Western blot analysis; assay type: cell-based; details: dose 0.039-20 µM
T1 sequence (whole entry): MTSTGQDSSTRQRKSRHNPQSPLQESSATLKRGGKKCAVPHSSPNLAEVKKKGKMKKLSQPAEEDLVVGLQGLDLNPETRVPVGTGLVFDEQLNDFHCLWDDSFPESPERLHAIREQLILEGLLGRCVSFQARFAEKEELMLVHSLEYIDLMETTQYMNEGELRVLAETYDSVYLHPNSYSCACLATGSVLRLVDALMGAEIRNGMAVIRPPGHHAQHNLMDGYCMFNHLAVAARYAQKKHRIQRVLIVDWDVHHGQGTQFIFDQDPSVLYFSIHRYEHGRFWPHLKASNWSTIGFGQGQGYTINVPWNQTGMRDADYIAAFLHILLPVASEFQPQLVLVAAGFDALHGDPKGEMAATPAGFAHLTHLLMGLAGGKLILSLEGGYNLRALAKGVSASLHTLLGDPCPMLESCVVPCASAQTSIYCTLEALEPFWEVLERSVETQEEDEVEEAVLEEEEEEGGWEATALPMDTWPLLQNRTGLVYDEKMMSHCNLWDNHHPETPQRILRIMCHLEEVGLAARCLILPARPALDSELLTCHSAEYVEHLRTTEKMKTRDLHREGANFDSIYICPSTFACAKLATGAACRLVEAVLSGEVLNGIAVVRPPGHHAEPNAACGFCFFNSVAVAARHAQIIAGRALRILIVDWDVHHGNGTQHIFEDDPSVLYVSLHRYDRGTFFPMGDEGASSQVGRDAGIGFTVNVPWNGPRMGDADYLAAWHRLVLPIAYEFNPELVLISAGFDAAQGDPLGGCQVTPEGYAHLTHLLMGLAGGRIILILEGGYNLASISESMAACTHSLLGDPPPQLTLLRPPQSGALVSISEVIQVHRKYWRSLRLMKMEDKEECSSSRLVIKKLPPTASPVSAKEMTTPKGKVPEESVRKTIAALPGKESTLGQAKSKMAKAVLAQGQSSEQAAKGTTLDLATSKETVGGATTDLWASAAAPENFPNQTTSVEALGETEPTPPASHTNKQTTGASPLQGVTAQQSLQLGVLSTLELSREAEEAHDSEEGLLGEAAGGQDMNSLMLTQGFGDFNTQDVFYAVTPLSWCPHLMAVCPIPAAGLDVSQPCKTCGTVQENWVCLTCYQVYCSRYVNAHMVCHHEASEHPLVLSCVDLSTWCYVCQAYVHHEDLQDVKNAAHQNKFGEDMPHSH

N2a = experiment: Cytotoxicity against mouse Neuro2a cells assessed as reduction in cell viability at 20 uM incubated for 24 hrs by Cell Titer-Glo 2.0 Luminescent cell assay; assay type: cell-based
Histone deacetylase = experiment: Inhibition of HDAC in human HeLa nuclear extracts using Boc-Lys (acetyl)-AMC as substrate preincubated for 5 mins followed by substrate addition and further incubated for 30 mins by fluorescence based assay; assay type: subcellular, Nucleus
Histone deacetylase 4 = Histone deacetylase 4 (Homo sapiens, UniProt P56524); experiment: Inhibition of N-terminal GST-tagged and C-terminal His-tagged human HDAC4 (627 to 1084 residues) expressed in baculovirus infected Sf9 cells using Boc Lys(TFA)-AMC as substrate preincubated for 5 mins followed by substrate addition and further incubated for 30 mins by fluorogenic assay
Histone deacetylase 7 = target: T2, Histone deacetylase 7 (Homo sapiens, UniProt Q8WUI4); experiment: Inhibition of N-terminal GST-tagged human HDAC7 (518 to end residues) expressed in baculovirus-infected Sf9 cells using Boc Lys(TFA)-AMC as substrate preincubated for 5 mins followed by substrate addition and further incubated for 30 mins by fluorogenic assay
T2 sequence (Q8WUI4 whole entry): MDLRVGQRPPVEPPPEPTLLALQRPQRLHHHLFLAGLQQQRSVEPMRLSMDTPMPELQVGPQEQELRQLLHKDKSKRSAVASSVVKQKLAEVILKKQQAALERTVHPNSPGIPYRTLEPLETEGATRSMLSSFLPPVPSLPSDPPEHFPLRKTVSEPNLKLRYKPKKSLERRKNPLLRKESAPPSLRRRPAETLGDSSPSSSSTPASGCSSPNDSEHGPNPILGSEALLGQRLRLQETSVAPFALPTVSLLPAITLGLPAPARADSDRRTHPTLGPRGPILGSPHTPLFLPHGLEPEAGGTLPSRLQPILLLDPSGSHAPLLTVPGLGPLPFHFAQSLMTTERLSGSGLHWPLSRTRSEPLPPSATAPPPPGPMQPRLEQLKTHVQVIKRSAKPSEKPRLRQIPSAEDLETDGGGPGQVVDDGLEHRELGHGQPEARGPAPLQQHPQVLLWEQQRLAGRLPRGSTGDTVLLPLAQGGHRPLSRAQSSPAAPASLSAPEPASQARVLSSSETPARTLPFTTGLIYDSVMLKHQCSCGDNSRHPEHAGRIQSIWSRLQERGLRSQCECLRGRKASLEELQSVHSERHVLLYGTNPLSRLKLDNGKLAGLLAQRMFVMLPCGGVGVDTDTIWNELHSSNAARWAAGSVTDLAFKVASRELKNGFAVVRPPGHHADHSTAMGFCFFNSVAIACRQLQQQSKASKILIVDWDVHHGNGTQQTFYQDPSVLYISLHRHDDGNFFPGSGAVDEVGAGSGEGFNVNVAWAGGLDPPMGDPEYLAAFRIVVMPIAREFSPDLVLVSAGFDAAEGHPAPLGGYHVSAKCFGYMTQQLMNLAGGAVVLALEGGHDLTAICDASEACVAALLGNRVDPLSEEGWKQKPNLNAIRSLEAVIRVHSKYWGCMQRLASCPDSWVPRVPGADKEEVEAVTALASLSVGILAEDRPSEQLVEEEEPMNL

Histone deacetylase 9 = Histone deacetylase 9 (Homo sapiens, UniProt Q9UKV0); experiment: Inhibition of C-terminal His-tagged human HDAC9 (604 to 1066 residues) expressed in baculovirus-infected Sf9 cells using Boc Lys(TFA)-AMC as substrate preincubated for 5 mins followed by substrate addition and further incubated for 30 mins by fluorogenic assay
[2] = target: T3, Protein deacetylase HDAC6 (Homo sapiens, UniProt Q9UBN7); experiment: Inhibition of N-terminal GST-tagged full length human HDAC6 expressed in baculovirus-infected Sf9 cells using Boc-Lys (acetyl)-AMC as substrate preincubated for 5 mins followed by substrate addition and further incubated for 30 mins by fluorescence based assay
T3 sequence (Q9UBN7 whole entry): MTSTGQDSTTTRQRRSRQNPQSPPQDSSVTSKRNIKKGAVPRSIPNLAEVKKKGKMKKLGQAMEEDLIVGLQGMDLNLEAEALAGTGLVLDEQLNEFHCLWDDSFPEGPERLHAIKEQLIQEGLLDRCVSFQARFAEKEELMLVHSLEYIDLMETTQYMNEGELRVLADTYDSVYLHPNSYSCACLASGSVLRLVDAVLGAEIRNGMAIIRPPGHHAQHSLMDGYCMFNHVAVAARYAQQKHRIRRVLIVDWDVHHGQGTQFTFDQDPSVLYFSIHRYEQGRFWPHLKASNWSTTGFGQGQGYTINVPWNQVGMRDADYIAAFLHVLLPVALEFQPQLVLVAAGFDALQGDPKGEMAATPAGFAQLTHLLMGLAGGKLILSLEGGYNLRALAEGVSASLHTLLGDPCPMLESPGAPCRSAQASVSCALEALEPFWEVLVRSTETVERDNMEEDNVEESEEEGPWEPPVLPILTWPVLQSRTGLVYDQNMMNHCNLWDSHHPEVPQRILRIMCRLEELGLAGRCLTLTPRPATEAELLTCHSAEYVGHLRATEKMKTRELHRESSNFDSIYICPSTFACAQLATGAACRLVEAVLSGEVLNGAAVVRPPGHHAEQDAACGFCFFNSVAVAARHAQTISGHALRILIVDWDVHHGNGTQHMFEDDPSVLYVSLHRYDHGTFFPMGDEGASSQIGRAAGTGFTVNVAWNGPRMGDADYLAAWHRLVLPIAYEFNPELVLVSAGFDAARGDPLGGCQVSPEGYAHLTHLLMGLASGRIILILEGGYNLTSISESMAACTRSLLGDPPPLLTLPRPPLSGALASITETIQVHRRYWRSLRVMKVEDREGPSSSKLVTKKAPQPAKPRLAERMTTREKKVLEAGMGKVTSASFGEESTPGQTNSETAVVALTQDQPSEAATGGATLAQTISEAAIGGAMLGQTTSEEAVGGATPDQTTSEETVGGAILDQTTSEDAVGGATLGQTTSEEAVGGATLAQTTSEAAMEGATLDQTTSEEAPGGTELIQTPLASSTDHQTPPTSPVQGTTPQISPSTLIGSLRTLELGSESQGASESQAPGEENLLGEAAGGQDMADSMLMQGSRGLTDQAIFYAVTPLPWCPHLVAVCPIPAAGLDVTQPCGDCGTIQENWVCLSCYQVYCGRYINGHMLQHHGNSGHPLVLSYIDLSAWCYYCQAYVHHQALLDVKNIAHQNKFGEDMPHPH

[3] = target: Amyloid-beta precursor protein (Homo sapiens) (UniProt P05067); experiment: Inhibition of amyloid beta (1 to 42) (unknown origin) aggregation upto 10 uM by ThT fluorescence assay; details: dose microM <=10
[4] = target: Acetylcholinesterase (Homo sapiens) (UniProt P22303); experiment: Inhibition of AChE (unknown origin)
[5] = target: Class 1 histone deacetylase (Mus musculus) (UniProt Q8VH37+O09106+P70288+O88895); experiment: Inhibition of class I HDAC in mouse Neuro2a cells assessed as increase in acetylated histone H3 level at 0.039 to 20 uM incubated for 24 hrs by Western blot analysis; assay type: cell-based; details: dose 0.039-20 µM
SH-SY5Y [6] = experiment: Neuroprotective activity against H2O2-induced cell death in human SH-SY5Y cells assessed as increase in cell viability incubated for 3 hrs by MTT assay; assay type: functional, cell-based; details: dose 2.5-40 µM
SH-SY5Y [7] = experiment: Neuroprotective activity against H2O2-induced cell death in human SH-SY5Y cells assessed as cell viability at 40 uM incubated for 3 hrs by MTT assay; assay type: functional; details: read-out: Activity
SH-SY5Y [8] = experiment: Induction of neurite outgrowth in human SH-SY5Y cells at 2.5 uM incubated for 5 days by immunostaining analysis; assay type: functional, cell-based; details: time 5.0 day
SH-SY5Y [9] = experiment: Induction of neurite outgrowth in human SH-SY5Y cells incubated for 5 days by immunostaining analysis; assay type: functional, cell-based; details: dose 1.25-5 µM, time 5.0 day

Sequence of Histone deacetylase 9 (Q9UKV0 whole entry, the tested form may be a part): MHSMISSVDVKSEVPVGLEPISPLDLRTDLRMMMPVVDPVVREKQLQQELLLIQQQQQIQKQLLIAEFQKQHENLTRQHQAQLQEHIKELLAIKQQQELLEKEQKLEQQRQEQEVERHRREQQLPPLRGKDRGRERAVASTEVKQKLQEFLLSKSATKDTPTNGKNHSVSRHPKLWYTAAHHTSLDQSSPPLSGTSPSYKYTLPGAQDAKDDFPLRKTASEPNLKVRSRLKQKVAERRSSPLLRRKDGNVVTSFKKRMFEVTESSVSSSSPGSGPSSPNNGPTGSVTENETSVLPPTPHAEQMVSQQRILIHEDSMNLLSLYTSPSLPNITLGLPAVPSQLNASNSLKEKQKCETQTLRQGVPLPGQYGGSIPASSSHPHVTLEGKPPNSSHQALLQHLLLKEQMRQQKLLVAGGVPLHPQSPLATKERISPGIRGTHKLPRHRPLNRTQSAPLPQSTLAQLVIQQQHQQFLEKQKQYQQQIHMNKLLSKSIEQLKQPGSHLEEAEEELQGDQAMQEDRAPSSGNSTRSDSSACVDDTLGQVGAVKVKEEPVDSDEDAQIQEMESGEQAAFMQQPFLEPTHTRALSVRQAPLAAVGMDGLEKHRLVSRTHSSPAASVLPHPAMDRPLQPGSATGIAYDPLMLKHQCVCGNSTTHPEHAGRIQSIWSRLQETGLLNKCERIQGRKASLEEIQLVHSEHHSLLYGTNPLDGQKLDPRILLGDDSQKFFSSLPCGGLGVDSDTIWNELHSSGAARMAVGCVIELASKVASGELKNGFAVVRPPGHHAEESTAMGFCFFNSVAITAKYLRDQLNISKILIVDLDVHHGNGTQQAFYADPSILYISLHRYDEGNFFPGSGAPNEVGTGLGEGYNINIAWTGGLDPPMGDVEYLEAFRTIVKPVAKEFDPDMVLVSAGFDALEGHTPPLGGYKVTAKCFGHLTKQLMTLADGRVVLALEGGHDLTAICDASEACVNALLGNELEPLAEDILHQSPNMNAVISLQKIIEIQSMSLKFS
Sequence of Histone deacetylase 4 (P56524 whole entry, the tested form may be a part): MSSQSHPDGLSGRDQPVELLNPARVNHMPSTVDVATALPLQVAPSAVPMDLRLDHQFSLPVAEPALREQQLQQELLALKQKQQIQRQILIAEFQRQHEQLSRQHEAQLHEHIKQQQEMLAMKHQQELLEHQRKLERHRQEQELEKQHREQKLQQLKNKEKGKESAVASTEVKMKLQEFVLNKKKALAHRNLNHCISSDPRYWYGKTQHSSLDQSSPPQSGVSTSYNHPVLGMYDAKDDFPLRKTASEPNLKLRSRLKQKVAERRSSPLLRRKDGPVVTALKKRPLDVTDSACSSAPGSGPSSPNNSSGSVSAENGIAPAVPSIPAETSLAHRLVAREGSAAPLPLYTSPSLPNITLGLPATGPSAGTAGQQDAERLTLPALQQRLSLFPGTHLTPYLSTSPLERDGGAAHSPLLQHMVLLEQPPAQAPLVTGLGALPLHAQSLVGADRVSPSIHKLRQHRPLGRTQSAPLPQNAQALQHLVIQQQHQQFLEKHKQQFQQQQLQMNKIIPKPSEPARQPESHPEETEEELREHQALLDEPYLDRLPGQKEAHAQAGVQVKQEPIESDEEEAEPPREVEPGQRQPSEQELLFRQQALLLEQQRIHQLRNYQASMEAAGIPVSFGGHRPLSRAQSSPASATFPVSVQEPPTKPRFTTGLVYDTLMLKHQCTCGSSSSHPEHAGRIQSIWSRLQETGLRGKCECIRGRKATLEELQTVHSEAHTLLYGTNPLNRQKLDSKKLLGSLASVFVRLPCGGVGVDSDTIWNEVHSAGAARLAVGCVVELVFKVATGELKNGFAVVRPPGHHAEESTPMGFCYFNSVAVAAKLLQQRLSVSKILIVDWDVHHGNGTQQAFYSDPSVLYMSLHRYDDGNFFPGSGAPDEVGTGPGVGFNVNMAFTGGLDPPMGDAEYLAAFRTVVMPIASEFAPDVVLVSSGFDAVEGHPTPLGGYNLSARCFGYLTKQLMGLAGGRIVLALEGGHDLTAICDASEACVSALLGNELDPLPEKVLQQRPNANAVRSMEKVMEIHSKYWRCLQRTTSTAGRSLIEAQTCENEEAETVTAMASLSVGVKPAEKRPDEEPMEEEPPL
Sequence of Amyloid-beta precursor protein (Homo sapiens) (P05067 whole entry): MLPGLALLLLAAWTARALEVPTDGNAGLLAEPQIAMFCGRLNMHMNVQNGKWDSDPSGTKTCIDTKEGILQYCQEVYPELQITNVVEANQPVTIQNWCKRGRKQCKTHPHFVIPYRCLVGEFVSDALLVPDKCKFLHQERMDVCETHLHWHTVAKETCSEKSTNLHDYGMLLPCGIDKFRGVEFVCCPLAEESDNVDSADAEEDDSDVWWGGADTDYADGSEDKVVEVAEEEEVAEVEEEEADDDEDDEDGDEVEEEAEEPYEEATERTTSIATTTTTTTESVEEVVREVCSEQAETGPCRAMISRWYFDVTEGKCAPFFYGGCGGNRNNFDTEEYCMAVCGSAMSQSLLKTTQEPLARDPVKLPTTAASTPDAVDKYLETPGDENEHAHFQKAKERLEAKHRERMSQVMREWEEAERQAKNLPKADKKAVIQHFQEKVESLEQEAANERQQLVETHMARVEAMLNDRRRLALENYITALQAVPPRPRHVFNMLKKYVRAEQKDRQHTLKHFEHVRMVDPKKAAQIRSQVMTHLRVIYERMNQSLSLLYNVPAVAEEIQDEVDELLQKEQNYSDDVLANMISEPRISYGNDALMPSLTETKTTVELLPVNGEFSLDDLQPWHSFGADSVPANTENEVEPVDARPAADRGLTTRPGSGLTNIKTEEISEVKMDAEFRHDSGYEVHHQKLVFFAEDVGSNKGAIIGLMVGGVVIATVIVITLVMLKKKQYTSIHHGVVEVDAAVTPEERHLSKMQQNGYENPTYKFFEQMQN
Sequence of Class 1 histone deacetylase (Mus musculus) (O09106 whole entry, looked up): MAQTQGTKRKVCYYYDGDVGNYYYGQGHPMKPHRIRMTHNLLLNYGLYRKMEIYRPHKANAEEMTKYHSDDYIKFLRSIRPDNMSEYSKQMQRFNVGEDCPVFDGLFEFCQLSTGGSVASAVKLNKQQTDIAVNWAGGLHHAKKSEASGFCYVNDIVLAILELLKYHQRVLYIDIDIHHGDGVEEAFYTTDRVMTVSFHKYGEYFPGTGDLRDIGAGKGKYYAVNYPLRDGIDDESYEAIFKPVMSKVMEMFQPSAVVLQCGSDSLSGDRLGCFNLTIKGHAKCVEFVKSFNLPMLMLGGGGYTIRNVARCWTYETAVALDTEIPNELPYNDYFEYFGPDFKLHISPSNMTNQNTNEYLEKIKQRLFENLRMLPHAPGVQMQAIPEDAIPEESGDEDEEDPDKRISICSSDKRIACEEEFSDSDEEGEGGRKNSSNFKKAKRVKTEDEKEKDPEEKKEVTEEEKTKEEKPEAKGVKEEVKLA
Sequence of Class 1 histone deacetylase (Mus musculus) (O88895 whole entry, looked up): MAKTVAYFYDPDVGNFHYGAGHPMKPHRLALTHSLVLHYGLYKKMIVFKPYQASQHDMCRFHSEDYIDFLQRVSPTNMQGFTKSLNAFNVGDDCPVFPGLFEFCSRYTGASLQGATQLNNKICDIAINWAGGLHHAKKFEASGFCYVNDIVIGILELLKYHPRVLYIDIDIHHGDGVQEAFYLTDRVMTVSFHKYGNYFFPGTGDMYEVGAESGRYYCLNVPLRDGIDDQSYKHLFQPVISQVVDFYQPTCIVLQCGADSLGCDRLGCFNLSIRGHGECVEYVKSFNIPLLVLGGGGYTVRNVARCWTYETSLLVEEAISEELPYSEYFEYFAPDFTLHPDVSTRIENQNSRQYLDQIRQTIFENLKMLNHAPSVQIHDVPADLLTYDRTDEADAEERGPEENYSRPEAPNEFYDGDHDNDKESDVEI
Sequence of Class 1 histone deacetylase (Mus musculus) (P70288 whole entry, looked up): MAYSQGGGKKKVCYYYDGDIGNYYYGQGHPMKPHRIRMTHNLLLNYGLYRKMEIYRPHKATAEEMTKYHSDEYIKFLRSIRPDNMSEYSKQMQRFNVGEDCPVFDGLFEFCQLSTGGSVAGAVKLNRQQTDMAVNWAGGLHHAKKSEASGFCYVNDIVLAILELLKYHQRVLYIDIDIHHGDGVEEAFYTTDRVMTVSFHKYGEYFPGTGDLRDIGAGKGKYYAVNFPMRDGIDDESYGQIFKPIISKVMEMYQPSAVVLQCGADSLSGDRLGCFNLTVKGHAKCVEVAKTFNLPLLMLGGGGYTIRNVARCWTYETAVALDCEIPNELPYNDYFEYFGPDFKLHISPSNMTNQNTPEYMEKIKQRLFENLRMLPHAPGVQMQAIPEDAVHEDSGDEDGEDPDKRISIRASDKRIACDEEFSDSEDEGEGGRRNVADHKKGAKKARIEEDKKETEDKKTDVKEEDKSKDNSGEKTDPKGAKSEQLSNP
Sequence of Class 1 histone deacetylase (Mus musculus) (Q8VH37 whole entry, looked up): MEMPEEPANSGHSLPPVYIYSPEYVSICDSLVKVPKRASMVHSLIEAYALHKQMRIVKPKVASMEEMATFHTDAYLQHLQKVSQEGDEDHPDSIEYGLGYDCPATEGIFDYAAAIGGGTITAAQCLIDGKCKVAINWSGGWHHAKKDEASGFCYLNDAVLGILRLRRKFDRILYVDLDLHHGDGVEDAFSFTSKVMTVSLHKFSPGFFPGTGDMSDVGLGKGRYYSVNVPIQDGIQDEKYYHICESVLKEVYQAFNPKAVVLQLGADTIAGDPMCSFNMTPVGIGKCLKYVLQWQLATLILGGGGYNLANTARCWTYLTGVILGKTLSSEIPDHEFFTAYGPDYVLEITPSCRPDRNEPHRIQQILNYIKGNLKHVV

| SMILES | IC50 (Histone deacetylase) [nM] | IC50 (Histone deacetylase 4) [nM] | IC50 (Histone deacetylase 7) [nM] | IC50 (Histone deacetylase 9) [nM] | IC50 [2] [nM] | also measured |
| --- | --- | --- | --- | --- | --- | --- |
| O=C(NO)c1ccc(CN2c3ccccc3Sc3ccccc32)cc1 | – | – | – | – | – | inhibition [1]: Dose-Dependent Effect; Activity (N2a): Non-Toxic |
| O=C(NO)c1ccc(CN2c3ccccc3Sc3ccc(C(F)(F)F)cc32)cc1 | 840 | 7590 | 2240 | 2580 | 14.2 | – |
| O=C(NO)c1ccc(CN2c3ccccc3Sc3ccc(Cl)cc32)cc1 | 290 | 3600 | 1360 | 350 | 9.5 | – |
| O=C(NO)c1ccc(Nc2c3ccccc3nc3ccc(Br)cc23)cc1 | 160 | – | – | – | – | – |
| NC(=O)c1ccc2c(c1)N(Cc1ccc(C(=O)NO)cc1)c1ccccc1S2 | – | – | – | – | – | inhibition [3]: inactive; inhibition [4]: inactive; inhibition [5]: Active; inhibition [1]: Dose-Dependent Effect; Activity (N2a): Non-Toxic; Activity (SH-SY5Y [6]): Dose-Dependent Effect; viability at 40 µM (SH-SY5Y [7]): 70.8%; Activity (SH-SY5Y [8]): Active; Activity (SH-SY5Y [9]): Dose-Dependent Effect |
| NC(=O)c1ccc2c(c1)N(Cc1ccc(/C=C/C(=O)NO)cc1)c1ccccc1S2 | 20 | 3260 | 5740 | 8270 | 37 | – |
| CSc1ccc2c(c1)N(Cc1ccc(C(=O)NO)cc1)c1ccccc1[S+]2[O-] (configuration not stated) | 1680 | > 40000 | > 40000 | 720 | 35.9 | – |
| COc1ccc2c(c1)N(Cc1ccc(C(=O)NO)cc1)c1ccccc1S2 | 350 | 4760 | 1550 | 29700 | 18.9 | – |
| NC(=O)c1ccc2c(c1)N(Cc1ccc(C(=O)NO)cc1)c1ccccc1[S+]2[O-] (configuration not stated) | 1690 | 12900 | 9380 | 4200 | 14.3 | – |
| C/C(=N\O)c1ccc2c(c1)N(Cc1ccc(C(=O)NO)cc1)c1ccccc1S2 | 330 | 3850 | 1090 | 4340 | 10.8 | – |
| O=C(NO)c1ccc(CN2c3ccccc3[S+]([O-])c3ccccc32)cc1 | 2760 | 6620 | 5150 | 27600 | 20.5 | – |
| CSc1ccc2c(c1)N(Cc1ccc(C(=O)NO)cc1)c1ccccc1S2 | 680 | 5800 | 2250 | 3260 | 9.4 | – |
